For assay [1], the system named is norepinephrine uptake into both rat heart and rat brain; reserpine hypothermia in mice. Briefly: Antidepressant activity (norepinephrine uptake into rat heart and rat brain in vivo; reversal of reserpine hypothermia in mice). The following applies: base and hydrochloride acid addition salts. The protocol: The activity of the compounds of the present invention as antidepressants is determined by a study of their ability to supress norepinephrine uptake into both rat heart and rat brain (in vivo), together with a determination of their ability to bring about a reversal of reserpine hypothermia in mice.

For assay [2], the system named is reserpine-induced hypothermia in the mouse. Briefly: Reversal of reserpine-induced hypothermia in the mouse. It is filed as in vivo. The following applies: 32 mg./kg. i.p., 2 hours after dosing; reserpine 2 mg./kg. s.c. 18 hours before; saline control 25.1° ± 3.2° C. Here is the method: The 1-amino-4-phenyltetraline final products of Examples III-IX were tested for antidepressant activity by measuring their ability to reverse reserpine-induced hypothermia in the mouse according to the procedure described by B.M. Askew in Life Science, Vol. 2, p. 725 (1963). In this test, all the animals were individually housed in plastic chambers with a cardboard bottom. The mice were injected with reserpine subcutaneously at 2 mg./kg. and retained at an ambient temperature of 20° C. for a period of 18 hours. At this point, their rectal temperatures were initially ascertained and immediately thereafter they were divided into groups of 5-20 animals for testing purposes. Each group then received either saline as a control or the compound to be tested at a dose level of 32 mg./kg., administered intraperitoneally, and the resulting rectal temperatures were measured two hours later. In the table below, the entries are reported as mean rectal temperatures for each compound at the 2-hour mark, together with the number of animals tested in each particular group.

For assay [3], the system named is norepinephrine (H^3 NE) uptake into the rat heart. Briefly: Blockade of tritium-labeled norepinephrine (H^3 NE) uptake into the rat heart in vivo. The note with it: 32 μmoles/kg. (8.8 mg./kg.) i.p. 20 minutes before i.v. dl-H^3 NE, each entry a mean from a separate experiment. The protocol:
The 1-amino-4-phenyltetralin final products of Examples IV-V and VIII-IX were tested for antidepressant activity by measuring their ability to block tritium-labeled norepinephrine (H^3 NE) uptake into the rat heart in vivo. For these particular studies, rats in groups of five were pretreated with the control vehicle or the drug to be administered at 32 μmoles/kg. (8.8 mg./kg.), via the intraperitoneal route, followed 20 minutes later by intravenous injection of dl-H^3 NE (having a specific activity of 9.5 c/mmole) at a dose level of 5 μc/kg. The rats were then sacrificed one hour ater administration of said agent (H^3 NE), and the norepinephrine (NE) content present in the heart was subsequently isolated therefrom by means of extraction with alumina, followed by repeated elution of said alumina extracts with 0.05N aqueous hydrochloric acid. The specific activity (cpm/μg.) of H^3 NE in the heart was then determined by measuring the amount of radioactivity (using a liquid scintillation counter) and the NE content (fluorimetrically via an Auto-Analyzer of the type manufactured by the Technicon Instruments Corporation of Chauncey, N.Y.) of the aforesaid aqueous eluates. The results obtained in this manner are presented below in the following table, where the individual entries are each made from a separate experiment and constitute mean relative specific activities expressed in terms of percent control: […]

The test system of assay [4] is spontaneous motor activity in mice. Briefly: Spontaneous motor activity in mice (actophotometer activity counts). It is filed as in vivo. The note with it: for hyperactive response: same conditions, 0.32, 1.0, 3.2, 10 and 32 mg./kg. The protocol: A total of seven mice was employed at each dose level tested (viz., at 0.32, 1.0, 3.2, 10 and 32 mg./kg., i.p., respectively) and these mice were separated one to an activity cage. After an initial one-half hour exposure period (for acclimation purposes), each animal in the cage was treated with a sample of the drug intraperitoneally and immediately thereafter returned to said cage, with activity counts every one-half hour being recorded from that point on.

Values joined by “and” are separate entries in the source; they are usually repeats but may differ in a detail not shown here. Identical values can stand only once. Counter-ions that a name gives are not always drawn.

With `c1ccc([C@@H]2CC[C@@H](NC3CC3)c3ccccc32)cc1` (relative stereo) [trans-dl-N-cyclopropyl-4-phenyl-1,2,3,4-tetrahydro-1-naphthylamine], the “degree of antidepressant activity” value in assay [1] was “markedly high degree of antidepressant activity”.
With `CCN[C@@H]1CC[C@@H](c2ccccc2)c2ccccc21` (relative stereo) [Trans-isomer of Example V, trans-dl-N-ethyl-4-phenyl-1,2,3,4-tetrahydro-1-naphthylamine hydrochloride], the “Mean Rectal Temperature, Temp. (° C.) ±S.D.” value (“Mean Rectal Temperature” for short) in assay [2] came out at 33.5 ± 0.9 °C. In addition, in assay [3] (hydrochloride), the “Sp. Activity of Heart H^3 NE (% Control)” value is 71 % Control and 75 % Control.
For `CCN[C@H]1CC[C@@H](c2ccccc2)c2ccccc21` (relative stereo) [Cis-isomer of Example V, cis-dl-N-ethyl-4-phenyl-1,2,3,4-tetrahydro-1-naphthylamine hydrochloride], the “Mean Rectal Temperature” value in assay [2] amounted to 28.0 ± 2.3 °C. For the same molecule, in assay [3], the “Sp. Activity of Heart H^3 NE (% Control)” value is on record as 144 % Control.
As for `CC(C)N[C@H]1CC[C@@H](c2ccccc2)c2ccccc21` (relative stereo) [Cis-isomer of Example VI, cis-dl-N-isopropyl-4-phenyl-1,2,3,4-tetrahydro-1-naphthylamine hydrochloride], the “Mean Rectal Temperature” value in assay [2] was found to be 27.3 ± 3.6 °C.
Turning to `N[C@H]1CC[C@@H](c2ccccc2)c2ccccc21` (relative stereo) [Cis-isomer of Example IX, cis-dl-4-phenyl-1,2,3,4-tetrahydro-1-naphthylamine hydrochloride], the “Mean Rectal Temperature” value in assay [2] amounted to 30.8 ± 2.6 °C. In addition, the “Sp. Activity of Heart H^3 NE (% Control)” value in assay [3] stood at 93 % Control.
Regarding `c1ccc([C@@H]2CC[C@@H](NC3CC3)c3ccccc32)cc1` (relative stereo) [Trans-isomer of Example VII, trans-dl-N-cyclopropyl-4-phenyl-1,2,3,4-tetrahydro-1-naphthylamine hydrochloride], the “Mean Rectal Temperature” value in assay [2] was 32.6 ± 0.7 °C.
On to `CN[C@H]1CC[C@H](c2ccccc2)c2ccccc21` [Trans-l-isomer of Example III, trans-l-N-methyl-4-phenyl-1,2,3,4-tetrahydro-1-naphthylamine hydrochloride], for which the “Mean Rectal Temperature” value in assay [2] amounted to 27.5 ± 2.9 °C. In assay [4] (10 and 32 mg./kg. (i.p.)), the stimulant effect entry is given as “little evidence of a stimulant effect”.
Regarding `Cl.N[C@@H]1CC[C@@H](c2ccccc2)c2ccccc21` (relative stereo) [Trans-isomer of Example IX, trans-4-phenyl-1,2,3,4-tetrahydro-1-naphthylamine hydrochloride], the “Mean Rectal Temperature” value in assay [2] is 31.8 ± 2.5 °C. In addition, in assay [3] (hydrochloride), the “Sp. Activity of Heart H^3 NE (% Control)” value is 60 % Control and 66 % Control.
In the case of `CN(C)[C@@H]1CC[C@@H](c2ccccc2)c2ccccc21` (relative stereo) [Trans-isomer of Example VIII, trans-dl-N,N-dimethyl-4-phenyl-1,2,3,4-tetrahydro-1-naphthylamine hydrochloride], the “Mean Rectal Temperature” value in assay [2] came out at 33.5 ± 1.4 °C. The “Sp. Activity of Heart H^3 NE (% Control)” value in assay [3] amounted to 49 % Control.
With `CC(C)N[C@@H]1CC[C@@H](c2ccccc2)c2ccccc21` (relative stereo) [Trans-isomer of Example VI, trans-dl-N-isopropyl-4-phenyl-1,2,3,4-tetrahydro-1-naphthylamine hydrochloride], the “Mean Rectal Temperature” value in assay [2] came to 32.6 ± 0.7 °C.
Consider `CN[C@H]1CC[C@@H](c2ccccc2)c2ccccc21` (relative stereo) [Cis-isomer of Example IV, cis-dl-N-methyl-4-phenyl-1,2,3,4-tetrahydro-1-naphthylamine hydrochloride], for which the “Mean Rectal Temperature” value in assay [2] was 27.0 ± 3.4 °C. The “Sp. Activity of Heart H^3 NE (% Control)” value in assay [3] (hydrochloride) was 87 % Control and 104 % Control.
For `CN[C@@H]1CC[C@@H](c2ccccc2)c2ccccc21` (relative stereo) [Trans-isomer of Example IV, trans-dl-N-methyl-4-phenyl-1,2,3,4-tetrahydro-1-naphthylamine hydrochloride], the “Mean Rectal Temperature” value in assay [2] was determined as 33.5 ± 1.5 °C. The “time course / duration of effect” value in assay [4] (32 mg./kg. i.p.) is “especially long-lived”. Further, in assay [4] (i.p., spontaneous motor activity), the “potency compared with dextrorotatory isomer” value is on record as “somewhat less potent than the aforesaid dextrorotatory isomer”. In assay [3] (hydrochloride), the “Sp. Activity of Heart H^3 NE (% Control)” value is 14 % Control and 19 % Control and 21 % Control and 25 % Control.
Regarding `CC(C)N[C@@H]1CC[C@@H](c2ccccc2)c2ccccc21` (relative stereo) [trans-dl-N-isopropyl-4-phenyl-1,2,3,4-tetrahydro-1naphthylamine], the “degree of antidepressant activity” value in assay [1] is recorded as “markedly high degree of antidepressant activity”.
On to `CN(C)[C@@H]1CC[C@@H](c2ccccc2)c2ccccc21` (relative stereo) [trans-dl-N,N-dimethyl-4-phenyl-1,2,3,4-tetrahydro-1-naphthylamine], for which, in assay [1], the “degree of antidepressant activity” value is reported as “markedly high degree of antidepressant activity”.
The same measure, in the same setting: the value for `CCN[C@@H]1CC[C@@H](c2ccccc2)c2ccccc21` (relative stereo) [trans-dl-N-ethyl-4-phenyl-1,2,3,4-tetrahydro-1-naphthylamine] was “markedly high degree of antidepressant activity”.
Still for that read-out and setting: in the case of `N[C@@H]1CC[C@@H](c2ccccc2)c2ccccc21` (relative stereo) [trans-dl-4-phenyl-1,2,3,4-tetrahydro-1-naphthylamine] it was “markedly high degree of antidepressant activity”.
On to `CNCCCN1c2ccccc2CCc2ccccc21` [desmethylimipramine, reference compound], for which the hyperactive response result in assay [4] (i.p.) is on record as “failed to elicit any hyperactive response whatsoever”.
Turning to `CNCCCC1c2ccccc2C=Cc2ccccc21` [protriptlyine, protriptyline, reference compound], the hyperactive response entry in assay [4] (i.p.) is “failed to elicit any hyperactive response whatsoever”.
Take `CN(C)[C@H]1CC[C@@H](c2ccccc2)c2ccccc21` (relative stereo) [Cis-isomer of Example VIII, cis-dl-N,N-dimethyl-4-phenyl-1,2,3,4-tetrahydro-1-naphthylamine hydrochloride]: in assay [2], the “Mean Rectal Temperature” value was 31.4 ± 2.4 °C. Besides, the “Sp. Activity of Heart H^3 NE (% Control)” value in assay [3] is listed as 120 % Control.
For `c1ccc([C@@H]2CC[C@H](NC3CC3)c3ccccc32)cc1` (relative stereo) [Cis-isomer of Example VII, cis-dl-N-cyclopropyl-4-phenyl-1,2,3,4-tetrahydro-1-naphthylamine hydrochloride], the “Mean Rectal Temperature” value in assay [2] worked out at 25.3 ± 4.4 °C.

Values taken from patent US4029731A, “Aminophenyltetralin compounds” (Pfizer Inc., priority 1976, dated 1977).
